From patent US20240390338A1, “METHODS FOR TREATING NEUROGENERATIVE DISEASES” (PTC THERAPEUTICS, INC., priority 2021, published 2024) come the findings set out here.

Structures are written as SMILES.

This assay concerns MAPT 3R mRNA. Nature of the assay: RT-qPCR Assay to Quantify MAPT 3R mRNA in Cells. Details: key to EC2X: An EC2X value ≥3000 nM is indicated by “inactive.”; An EC2X value between >1500 nM and ≤3000 nM is indicated by one star (*); An EC2X value between >1000 nM and ≤1500 nM is indicated by two stars (**); An EC2X value between >500 nM and ≤1000 nM is indicated by three stars (***); An EC2X value between >50 nM and ≤500 nM is indicated by four stars (****); An EC2X value ≤50 nM is indicated by five stars (*****). The following applies: cells incubated with compound 24 h; 7-point concentration curve; MAPT minigene 3R RT-qPCR with GAPDH assay; EC2X interpolated from dose response curve. In kind it is cell-based. On the procedure: RT-qPCR Assay to Quantify MAPT 3R mRNA in Cells
Test compounds were serially diluted 3.16-fold in 100% DMSO to generate a 7-point concentration curve. Aliquots of 0.5 μL of diluted compounds were transferred to a 96-well flat bottom plate by a liquid handler. An aliquot of 0.5 μL DMSO was also transferred to separate wells and used as controls. Duplicate samples were set up for each compound concentration and for the DMSO control.
Cells were thawed and incubated in cell culture media (DMEM, 10% FBS, and 1% antibiotic cocktail) for 72 h. Cells were trypsinized, counted, and re-suspended to a concentration of 200,000 cells/mL in cell culture media. A 100 μL aliquot of the cell suspensions were plated at 20,000 cells per well in the compound containing 96 well microtiter plate and incubated for in a cell culture incubator (37° C., 5% CO2, 100% relative humidity).
After 24 h, media was aspirated from the cells and 20 μL of the RCL2 lysis buffer (10 mM Tris-HCL pH 7.4, 150 mM NaCl, 0.33% IGEPAL® CA-630) was added to each well and incubated at RT for 1 min. Chilled nuclease free water (140 μL per well) was added and the plates were immediately transferred on ice. After 1 min on ice, plates were frozen at −80° C. overnight.
Preparation of RT-qPCR Reaction Mixture:
An aliquot of 4 μL/well of the cell lysates was transferred using the liquid handler to the Armadillo 384-Well PCR plate containing 6 μL/well of the RT-qPCR reaction mixture that was prepared as detailed above. The plates were then sealed with MicroAmp™ Optical Adhesive Film followed by spinning down for 1 min and placed in the CFX384 thermocycler (BioRad).
The RT-qPCR was carried out at the following temperatures for the indicated time: • Step 1: 48° C. (30 min) • Step 2: 95° C. (10 min) • Step 3: 95° C. (15 sec) • Step 4: 60° C. (1 min); then, repeated Steps 3 and 4 for a total of 40 cycles.
The percent exon 4 skipping was calculated for each dose of compound treatment using Equations 1 and 2.
Data were fit to a dose response curve and the EC2X was interpolated using XLfit® statistical and curve fitting package.
An EC2X value between >1000 nM and ≤1500 nM is indicated by two stars (**). An EC2X value between >500 nM and ≤1000 nM is indicated by three stars (***). An EC2X value between >50 nM and ≤500 nM is indicated by four stars (****). An EC2X value ≤50 nM is indicated by five stars (*****).
On the technique in general: Real-time PCR tracks product formation cycle by cycle.
Regarding `Cc1c(C[C@H](C)N)sc2c(NCc3cccs3)cc(C#N)nc12` [Cpd 54, 2-[(2S)-2-aminopropyl]-3-methyl-7-{[(thiophen-2-yl)methyl]amino}thieno[3,2-b]pyridine-5-carbonitrile], the EC (2-fold increase) was in the range of 0.05 to 0.5 µM.

In the case of `Cc1c(C[C@@H](N)[C@H](C)F)sc2c(NCc3cccs3)cc(Cl)nc12` [Cpd 126, 2-[(2R,3S)-2-amino-3-fluorobutyl]-5-chloro-3-methyl-N-[(thiophen-2-yl)methyl]thieno[3,2-b]pyridin-7-amine], the EC (2-fold increase) was ≤ 0.05 µM.

With `Cc1c(C[C@H](C)N)sc2c(NCc3ccccc3F)cc(Cl)nc12` [Cpd 29, 2-[(2S)-2-aminopropyl]-5-chloro-N-[(2-fluorophenyl)methyl]-3-methylthieno[3,2-b]pyridin-7-amine], the EC (2-fold increase) was ≤ 0.05 µM.

As to `CSC[C@H](N)Cc1sc2c(NCc3ccco3)cc(Cl)nc2c1C` [Cpd 104, 2-[(2R)-2-amino-3-(methylsulfanyl)propyl]-5-chloro-N-[(furan-2-yl)methyl]-3-methylthieno[3,2-b]pyridin-7-amine], the EC (2-fold increase) is ≤ 0.05 µM.

On to `C[C@H](N)C(F)c1sc2c(NCc3ccco3)cc(Cl)nc2c1Br` (stereo partly drawn) [Cpd 154, 2-[(2S)-2-amino-1-fluoropropyl]-3-bromo-5-chloro-N-[(furan-2-yl)methyl]thieno[3,2-b]pyridin-7-amine], for which the EC (2-fold increase) was ≤ 0.05 µM.

`N[C@H](CF)Cc1sc2c(NCc3cccs3)cc(Cl)nc2c1Br` [Cpd 63, 2-[(2S)-2-amino-3-fluoropropyl]-3-bromo-5-chloro-N-[(thiophen-2-yl)methyl]thieno[3,2-b]pyridin-7-amine]: the EC (2-fold increase) was 1 to 1.5 µM.

Consider `CN[C@@H](C)Cc1sc2c(NCc3ccco3)cc(Cl)nc2c1C` [Cpd 42, 5-chloro-N-[(furan-2-yl)methyl]-3-methyl-2-[(2S)-2-(methylamino)propyl]thieno[3,2-b]pyridin-7-amine], for which the EC (2-fold increase) is 0.5 to 1 µM.

As for `COC[C@H](N)Cc1sc2c(NCc3ccco3)cc(Cl)nc2c1Cl` [Cpd 40, 2-[(2R)-2-amino-3-methoxypropyl]-3,5-dichloro-N-[(furan-2-yl)methyl]thieno[3,2-b]pyridin-7-amine], the EC (2-fold increase) is ≤ 0.05 µM.

Consider `N#CC[C@H](N)Cc1sc2c(NCc3cccs3)cc(Cl)nc2c1Cl` [Cpd 106, (3S)-3-amino-4-(3,5-dichloro-7-{[(thiophen-2-yl)methyl]amino}thieno[3,2-b]pyridin-2-yl)butanenitrile], for which the EC (2-fold increase) was 0.05 to 0.5 µM.

On to `C[C@H](N)Cc1sc2c(NCc3cccs3)cc(Cl)nc2c1Br` [Cpd 53, 2-[(2S)-2-aminopropyl]-3-bromo-5-chloro-N-[(thiophen-2-yl)methyl]thieno[3,2-b]pyridin-7-amine], for which the EC (2-fold increase) was ≤ 0.05 µM.

Take `CS(=O)(=O)C[C@H](N)Cc1sc2c(NCc3ccco3)cc(Cl)nc2c1Br` [Cpd 117, 2-[(2R)-2-amino-3-(methanesulfonyl)propyl]-3-bromo-5-chloro-N-[(furan-2-yl)methyl]thieno[3,2-b]pyridin-7-amine]: the EC (2-fold increase) fell in the range of 0.05 to 0.5 µM.

For `C[C@H](N)Cc1cc2nc(Cl)cc(NCc3ccco3)c2s1` [Cpd 16, 2-[(2S)-2-aminopropyl]-5-chloro-N-[(furan-2-yl)methyl]thieno[3,2-b]pyridin-7-amine], the EC (2-fold increase) lay within 0.05 to 0.5 µM.

In the case of `Cc1c(C[C@@H](N)CCF)sc2c(NCc3ccco3)cc(Cl)nc12` [Cpd 95, 2-[(2S)-2-amino-4-fluorobutyl]-5-chloro-N-[(furan-2-yl)methyl]-3-methylthieno[3,2-b]pyridin-7-amine], the EC (2-fold increase) was ≤ 0.05 µM.

Take `Cc1c(C[C@@H](N)C(=O)Nc2ccncc2)sc2c(NCc3ccco3)cc(Cl)nc12` [Cpd 140, 3-(5-chloro-7-{[(furan-2-yl)methyl]amino}-3-methylthieno[3,2-b]pyridin-2-yl)-N-pyridin-4-yl-D-alaninamide]: the EC (2-fold increase) lay in the range of 0.05 to 0.5 µM.

For the molecule `N[C@H](Cc1sc2c(NCc3ccco3)cc(Cl)nc2c1Cl)C(=O)Nc1ccccc1F` [Cpd 120, 3-(3,5-dichloro-7-{[(furan-2-yl)methyl]amino}thieno[3,2-b]pyridin-2-yl)-N-(2-fluorophenyl)-D-alaninamide], the EC (2-fold increase) was 0.05 to 0.5 µM.

Consider `Cc1c([C@@H](C)[C@H](C)N)sc2c(NCc3ccco3)cc(Cl)nc12` [Cpd 151, 2-[(2S,3S)-3-aminobutan-2-yl]-5-chloro-N-[(furan-2-yl)methyl]-3-methylthieno[3,2-b]pyridin-7-amine], for which the EC2X result was “inactive”.

In the case of `C[C@H](N)Cc1sc2c(NCc3ccco3)cc(Cl)nc2c1C#N` [Cpd 109, 2-[(2S)-2-aminopropyl]-5-chloro-7-{[(furan-2-yl)methyl]amino}thieno[3,2-b]pyridine-3-carbonitrile], the EC (2-fold increase) was ≤ 0.05 µM.

Take `CSC[C@H](N)Cc1sc2c(NCc3ccco3)cc(Cl)nc2c1Cl` [Cpd 114, 2-[(2R)-2-amino-3-(methylsulfanyl)propyl]-3,5-dichloro-N-[(furan-2-yl)methyl]thieno[3,2-b]pyridin-7-amine]: the EC (2-fold increase) was ≤ 0.05 µM.

For the molecule `CS(=O)(=O)C[C@H](N)Cc1sc2c(NCc3ccco3)cc(Cl)nc2c1Cl` [Cpd 113, 2-[(2R)-2-amino-3-(methanesulfonyl)propyl]-3,5-dichloro-N-[(furan-2-yl)methyl]thieno[3,2-b]pyridin-7-amine], the EC (2-fold increase) is 0.05 to 0.5 µM.

In the case of `CC[C@H](N)Cc1sc2c(NCc3cccs3)cc(Cl)nc2c1Cl` [Cpd 83, 2-[(2S)-2-aminobutyl]-3,5-dichloro-N-[(thiophen-2-yl)methyl]thieno[3,2-b]pyridin-7-amine], the EC (2-fold increase) was ≤ 0.05 µM.

Take `Cc1c(C[C@@H](N)C(=O)Nc2cnccn2)sc2c(NCc3ccco3)cc(Cl)nc12` [Cpd 135, 3-(5-chloro-7-{[(furan-2-yl)methyl]amino}-3-methylthieno[3,2-b]pyridin-2-yl)-N-pyrazin-2-yl-D-alaninamide]: the EC (2-fold increase) was in the range of 0.05 to 0.5 µM.

As to `N[C@@H](CCF)Cc1sc2c(NCc3cccs3)cc(Cl)nc2c1Br` [Cpd 74, 2-[(2S)-2-amino-4-fluorobutyl]-3-bromo-5-chloro-N-[(thiophen-2-yl)methyl]thieno[3,2-b]pyridin-7-amine], the EC (2-fold increase) was ≤ 0.05 µM.

For `C[C@H](N)Cc1sc2c(NCc3ccco3)cc(Cl)nc2c1Cl` [Cpd 36, 2-[(2S)-2-aminopropyl]-3,5-dichloro-N-[(furan-2-yl)methyl]thieno[3,2-b]pyridin-7-amine], the EC (2-fold increase) is ≤ 0.05 µM.

In the case of `N[C@H](Cc1sc2c(NCc3cccs3)cc(Cl)nc2c1Br)CC(F)F` [Cpd 107, 2-[(2S)-2-amino-4,4-difluorobutyl]-3-bromo-5-chloro-N-[(thiophen-2-yl)methyl]thieno[3,2-b]pyridin-7-amine], the EC (2-fold increase) fell in the range of 0.05 to 0.5 µM.

For `C[C@H](N)Cc1sc2c(NCc3cccs3)cc(Cl)nc2c1Cl` [Cpd 52, 2-[(2S)-2-aminopropyl]-3,5-dichloro-N-[(thiophen-2-yl)methyl]thieno[3,2-b]pyridin-7-amine], the EC (2-fold increase) was ≤ 0.05 µM.

`C[C@H](N)C(F)(F)c1sc2c(NCc3cccs3)cc(Cl)nc2c1Cl` [Cpd 132, 2-[(2S)-2-amino-1,1-difluoropropyl]-3,5-dichloro-N-[(thiophen-2-yl)methyl]thieno[3,2-b]pyridin-7-amine]: the EC (2-fold increase) is 0.05 to 0.5 µM.

`Cc1c(C[C@H](C)N)sc2c(NCc3ccco3)ccnc12` [Cpd 34, 2-[(2S)-2-aminopropyl]-N-[(furan-2-yl)methyl]-3-methylthieno[3,2-b]pyridin-7-amine]: the EC (2-fold increase) lay within 0.05 to 0.5 µM.

`N[C@@H](CCF)Cc1sc2c(NCc3ccco3)cc(Cl)nc2c1Br` [Cpd 97, 2-[(2S)-2-amino-4-fluorobutyl]-3-bromo-5-chloro-N-[(furan-2-yl)methyl]thieno[3,2-b]pyridin-7-amine]: the EC (2-fold increase) is ≤ 0.05 µM.
